Where “and” joins values, the source holds several entries; their conditions need not be identical. Equal entries are not always repeated.
System: 171881-019-R-J1-PDC tumor spheroids, viability
Assay: Anticancer human tumor 171881-019-R-J1-PDC patient-derived invasive breast carcinoma cell line growth inhibition [GQUAD]
Settings: spheroids with HUVEC and MSC; for viability, T/C: stronger effect = lower value
Source text: DNA G-quadruplex Stabilizer Agents in Combinations in Complex Spheroids
A high-throughput screen of multi-cell type tumor spheroids was designed to identify active combinations of DNA G-quadruplex stabilizer agents and targeted small molecules. Complex spheroids include a stromal component modeled by human endothelial cells (HUVEC) and fibroblasts modeled by human mesenchymal stem cells (MSCs). The concentration ranges selected for each drug and investigational agent were based upon clinically achievable concentrations if the clinical Cmax of the agent was known.
Compounds. The drugs and investigational agents: pidnarulex (CX-5461; NSC782164), APTO-253 (NSC789042), BRACO-19 (NSC847499), peposertib (NSC802822), ceralasertib (NSC780249), elimusertib (NSC800525), camonsertib (NSC841442), AZD-1390 (NSC803789), olaparib (NSC753686), talazoparib (NSC767125), ART-558 (NSC835418), sotorasib (NSC818433), MRTX-1133 (NSC836407), SN-38 (NSC673596), topotecan (NSC609699), etoposide (NSC141540), doxorubicin (NSC123127), gemcitabine (NSC613327), 5-fluorouracil (NSC19893), paclitaxel (NSC125973), vemurafenib (NSC761431), panobinostat (NSC761190), R-306465 (JNJ-16241199; NSC773264), adavosertib (NSC754352), TP-3654 (NSC805149), carboplatin (NSC241240), KSQ-4279 (NSC840948), and staurosporine (NSC755774) were obtained from the National Cancer Institute (NCI) Developmental Therapeutics Program Chemical Repository (34). The FDA-approved anticancer drug set is available from the NCI Developmental Therapeutics Program. […] The stock solutions were prepared in dimethyl sulfoxide (DMSO, Sigma-Aldrich, St. Louis, MO, cat. D2650) at 800-fold the tested concentration and stored at -70 degrees C prior to their use. All drugs and investigational agents were tested over a range starting from a high concentration at or near the clinical Cmax and decreasing in half-log increments. If the clinical Cmax for an agent had not been determined, the highest concentration tested was 10 microM.
2.3 Cell Culture. All cells were maintained in an incubator at 37 degrees C and 5% CO2 with 95% humidity. The PDC lines were cultured according to standard operating procedures established by the NCI PDMR. All PDCs were thawed and cultured in Matrigel-coated flasks prepared with a working solution of 1X Ham's F-12 nutrient mix, without supplementation (Invitrogen, cat. 11765054), 100 U/mL penicillin-streptomycin (Invitrogen, cat. 15140122), and 2.5% Matrigel (Corning Inc., cat. 354248) for the first three passages. The 857933-349-R-J2-PDC line was cultured in 6C/Colon 1B media, which includes advanced DMEM/F-12 (Thermo Fisher Scientific, cat. 12634028), 10 mM HEPES (Thermo Fisher Scientific, cat. 15630080), 1X GlutaMAX supplement (Thermo Fisher Scientific, cat. 35050061), 0.1 mg/mL primocin (InvivoGen, cat. ant-pm-2), 10% defined fetal bovine serum, heat inactivated (HyClone Laboratories Inc., cat. SH30070.03HI), 50% L-WRN conditioned media (ATCC, cat. CRL-3276), 1.25 mM N-Acetyl-L-cysteine (Sigma-Aldrich, cat. A9165), 10 mM nicotinamide (Sigma-Aldrich, cat. N0636), 1X B-27 supplement (Thermo Fisher Scientific, cat. 17504044), 1X N-2 supplement (Thermo Fisher Scientific, cat. 17502048), 10 microM Y-27632 dihydrochloride (Tocris Bioscience, cat. 1254), and 50 ng/mL human EGF recombinant protein (Thermo Fisher Scientific, cat. PHG0311). The 485176-168-R4-J1-PDC line was cultured in Panc media, which includes all 6C/Colon 1B media components plus 100 ng/mL human FGF-10 (Thermo Fisher Scientific, cat. 100-26), 500 nM SB-431542 (Selleckchem, cat. S1067), and gastrin (Tocris, cat. 3006).
[…]

[1] = curve of first compound, second compound 0.0316 µM
[2] = curve of first compound, second compound 0.1 µM
[3] = curve of first compound, second compound 0.316 µM
[4] = curve of first compound, second compound 1 µM
[5] = curve of first compound, second compound 3.16 µM
[6] = curve of first compound, second compound 10 µM
[7] = second compound 0.0316 µM, first compound 0.0316 µM
[8] = second compound 0.0316 µM, first compound 0.316 µM
[9] = second compound 0.1 µM, first compound 0.0316 µM
[10] = second compound 0.1 µM, first compound 0.316 µM
[11] = second compound 0.316 µM, first compound 0.0316 µM
[12] = second compound 0.316 µM, first compound 0.316 µM
[13] = second compound 1 µM, first compound 0.0316 µM
[14] = second compound 1 µM, first compound 0.316 µM
[15] = second compound 3.16 µM, first compound 0.0316 µM
[16] = second compound 3.16 µM, first compound 0.316 µM
[17] = second compound 10 µM, first compound 0.0316 µM
[18] = second compound 10 µM, first compound 0.316 µM
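Further: spheroids exposed to compounds for 7 days.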
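Wherever viability, T/C is given: 100% = DMSO vehicle control viability.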

Structure (SMILES): CC[C@@]1(O)C(=O)OCc2c1cc1n(c2=O)Cc2cc3c(CN(C)C)c(O)ccc3nc2-1 + Cc1cnc(CNC(=O)c2c(=O)c3ccc(N4CCCN(C)CC4)nc3n3c2sc2ccccc23)cn1
- IC50 [1]: 83.8 nM
- IC50 [2]: 141 nM
- IC50 [3]: > 316 nM
- IC50 [4]: > 316 nM
- IC50 [5]: > 316 nM
- IC50 [6]: > 316 nM
- viability, T/C (second compound 0.0316 µM, first compound 0.000999 µM): 96.2%
- viability, T/C (second compound 0.0316 µM, first compound 0.00316 µM): 93.7%
- viability, T/C (second compound 0.0316 µM, first compound 0.00999 µM): 89.8%
- viability, T/C [7]: 72.3%
- viability, T/C (second compound 0.0316 µM, first compound 0.0999 µM): 45.2%
- viability, T/C [8]: 40.8%
- viability, T/C (second compound 0.1 µM, first compound 0.000999 µM): 89.5%
- viability, T/C (second compound 0.1 µM, first compound 0.00316 µM): 78.6%
- viability, T/C (second compound 0.1 µM, first compound 0.00999 µM): 76.7%
- viability, T/C [9]: 64.1%
- viability, T/C (second compound 0.1 µM, first compound 0.0999 µM): 50%
- viability, T/C [10]: 45.8%
- viability, T/C (second compound 0.316 µM, first compound 0.000999 µM): 74%
- viability, T/C (second compound 0.316 µM, first compound 0.00316 µM): 73.1%
- viability, T/C (second compound 0.316 µM, first compound 0.00999 µM): 68.9%
- viability, T/C [11]: 60.8%
- viability, T/C (second compound 0.316 µM, first compound 0.0999 µM): 61.3%
- viability, T/C [12]: 50.9%
- viability, T/C (second compound 1 µM, first compound 0.000999 µM): 71.6%
- viability, T/C (second compound 1 µM, first compound 0.00316 µM): 63.2%
- viability, T/C (second compound 1 µM, first compound 0.00999 µM): 65.7%
- viability, T/C [13]: 60.7%
- viability, T/C (second compound 1 µM, first compound 0.0999 µM): 56.4%
- viability, T/C [14]: 50.7%
- viability, T/C (second compound 3.16 µM, first compound 0.000999 µM): 63.1%
- viability, T/C (second compound 3.16 µM, first compound 0.00316 µM): 59.9%
- viability, T/C (second compound 3.16 µM, first compound 0.00999 µM): 62.7%
- viability, T/C [15]: 57%
- viability, T/C (second compound 3.16 µM, first compound 0.0999 µM): 58.4%
- viability, T/C [16]: 50.7%
- viability, T/C (second compound 10 µM, first compound 0.000999 µM): 58.5%
- viability, T/C (second compound 10 µM, first compound 0.00316 µM): 54.4%
- viability, T/C (second compound 10 µM, first compound 0.00999 µM): 54.8%
- viability, T/C [17]: 59.7%
- viability, T/C (second compound 10 µM, first compound 0.0999 µM): 60.5%
- viability, T/C [18]: 48%

Structure (SMILES): C=CC(=O)N1CCN(c2nc(=O)n(-c3c(C)ccnc3C(C)C)c3nc(-c4c(O)cccc4F)c(F)cc23)C(C)C1 (stereo not drawn)
- viability, T/C (compound 0.0316 µM): 85.8% and 97% and 88.1%
- viability, T/C (compound 0.1 µM): 94.8% and 102% and 105%
- viability, T/C (compound 0.316 µM): 101% (2×) and 104%
- viability, T/C (compound 1 µM): 104% (2×) and 108%
- viability, T/C (compound 3.16 µM): 96.7% and 93.7% and 96.9%
- viability, T/C (compound 10 µM): 51.8% and 53.1% and 55.6%
- IC50 (curve of compound): > 10000 nM

Structure (SMILES): CCCS(=O)(=O)Nc1ccc(F)c(C(=O)c2c[nH]c3ncc(-c4ccc(Cl)cc4)cc23)c1F + Cc1[nH]c2ccc(F)cc2c1-c1nc2c3cccnc3c3ncccc3c2[nH]1
- IC50 [1]: 9320 nM
- IC50 [2]: 8860 nM
- IC50 [3]: 7730 nM
- IC50 [4]: 5620 nM
- IC50 [5]: < 31.6 nM
- IC50 [6]: 31.6 nM
- viability, T/C [7]: 104%
- viability, T/C (second compound 0.0316 µM, first compound 0.1 µM): 106%
- viability, T/C [8]: 102%
- viability, T/C (second compound 0.0316 µM, first compound 1 µM): 121%
- viability, T/C (second compound 0.0316 µM, first compound 3.16 µM): 99%
- viability, T/C (second compound 0.0316 µM, first compound 10 µM): 46.7%
- viability, T/C [9]: 105%
- viability, T/C (second compound 0.1 µM, first compound 0.1 µM): 106%
- viability, T/C [10]: 105%
- viability, T/C (second compound 0.1 µM, first compound 1 µM): 107%
- viability, T/C (second compound 0.1 µM, first compound 3.16 µM): 110%
- viability, T/C (second compound 0.1 µM, first compound 10 µM): 43.3%
- viability, T/C [11]: 90.2%
- viability, T/C (second compound 0.316 µM, first compound 0.1 µM): 77.2%
- viability, T/C [12]: 98.2%
- viability, T/C (second compound 0.316 µM, first compound 1 µM): 93.2%
- viability, T/C (second compound 0.316 µM, first compound 3.16 µM): 95.8%
- viability, T/C (second compound 0.316 µM, first compound 10 µM): 38.1%
- viability, T/C [13]: 73.7%
- viability, T/C (second compound 1 µM, first compound 0.1 µM): 60.8%
- viability, T/C [14]: 82.4%
- viability, T/C (second compound 1 µM, first compound 1 µM): 80.7%
- viability, T/C (second compound 1 µM, first compound 3.16 µM): 77.4%
- viability, T/C (second compound 1 µM, first compound 10 µM): 25%
- viability, T/C [15]: 7.61%
- viability, T/C (second compound 3.16 µM, first compound 0.1 µM): 8.32%
- viability, T/C [16]: 6.95%
- viability, T/C (second compound 3.16 µM, first compound 1 µM): 5.17%
- viability, T/C (second compound 3.16 µM, first compound 3.16 µM): 12.6%
- viability, T/C (second compound 3.16 µM, first compound 10 µM): 8.93%
- viability, T/C [17]: 46.9%
- viability, T/C (second compound 10 µM, first compound 0.1 µM): 45.5%
- viability, T/C [18]: 44.4%
- viability, T/C (second compound 10 µM, first compound 1 µM): 55.2%
- viability, T/C (second compound 10 µM, first compound 3.16 µM): 51.3%
- viability, T/C (second compound 10 µM, first compound 10 µM): 18.5%

Structure (SMILES): COc1ccc([C@@H](O)c2cc(-c3ncnc4cc(N5CCOCC5)ccc34)c(F)cc2Cl)nn1
- viability, T/C (compound 0.0316 µM): 82.4% and 94.3% and 101%
- viability, T/C (compound 0.1 µM): 85.4% and 83% and 76.8%
- viability, T/C (compound 0.316 µM): 72.4% and 72.6% and 69.2%
- viability, T/C (compound 1 µM): 46.7% and 35.9% and 46.9%
- viability, T/C (compound 3.16 µM): 13.4% and 7.19% and 13.3%
- viability, T/C (compound 10 µM): 5.21% and 1.35% and 5.78%
- IC50 (curve of compound): 838 nM and 629 nM and 684 nM
